The values below come from PMC8877149, “A Fungal Defensin Inhibiting Bacterial Cell-Wall Biosynthesis with Non-Hemolysis and Serum Stability” (Journal of Fungi, 2022).

Where a SMILES comes first, the peptide text is derived from it. Bridges are numbered along the chain shown (N, C = ends).

A short description of data set [1]: Serum stability assay (residual activity by inhibition-zone assay). Format: in vitro ADME. The conditions noted are these: undiluted fresh mouse serum, 37 °C, read-out inhibition zone on B. megaterium, 0.2 nmol/well, ns vs 0 h. The method, then:
(§1) Hemolytic activity of peptides against fresh erythrocytes from ICR mice (Mus musculus) was assayed according to the standard method. Peptides were diluted with 0.9% NaCl to the indicated concentration. The percentage of hemolysis is determined as (Apep − Ablank)/(Atot − Ablank) × 100, in which “A” represents absorbance measured at 570 nm. Ablank and Apep were evaluated in the absence or presence of peptides. One hundred percent hemolysis (Atot) was obtained in the presence of 1% Triton X-100. For the stability assay, Py4 was incubated in H2O or fresh mouse serum for the indicated times at 37 °C and their residual activity was measured by the inhibition-zone assay.

Data set [2] concerns fresh erythrocytes from ICR mice. As to the kind of experiment: Hemolysis assay. The note with it: 3.125 to 25 µM, 2-fold serial dilutions, in 0.9% NaCl; A570; 100% = 1% Triton X-100. Format: cell-based, Mus musculus. The method, then:
as §1

The test system of data set [3] is Staphylococcus aureus CGMCC 1.89. The data set is described as follows: Inhibition-zone assay, lethal concentration (CL). The class given is cell-based. The method, then: (§2) The inhibition-zone assay was used to quantify the antibacterial activity of Py4, as described previously. In brief, an overnight bacterial culture from a single colony was inoculated into fresh medium and grew to the late log-phase. A 10 μL aliquot of each culture was diluted in 6 mL pre-heated medium containing 0.8% agar. The mixture was spread on a 9-cm Petri dish, giving a depth of 1 mm. After settling, 3-mm wells were punched in the plate and then 2 μL peptide samples of different concentrations were added to each well. The agar plates were incubated overnight at indicated temperatures. A lethal concentration (CL) was calculated from a plot of d^2 against log n, where d is the diameter (in cm) and n is the amount of sample applied in the well (in nmol). The plot is linear and thus CL can be calculated from the slope (k) and the intercept (m) of this plot. The formula used here was CL = 2.93/ak10^m/k, where a is the thickness of the bacterial plate and CL is in μM.

Data set [4] relates to Staphylococcus aureus J698. The data set is described as follows: Inhibition-zone assay, lethal concentration (CL). The class given is cell-based. The note with it: S. aureus J698. The method, then:
as §2

The test system of data set [5] is Methicillin-resistant Staphylococcus aureus P1374. The data set is described as follows: Inhibition-zone assay, lethal concentration (CL). The note with it: methicillin-resistant S. aureus P1374. The class given is cell-based. As to the method: as §2
Data set [6] relates to Staphylococcus aureus J706. The data set is described as follows: Inhibition-zone assay, lethal concentration (CL). The class given is cell-based. The note with it: S. aureus J706. The method, then: as §2
Data set [7] deals with Bacillus megaterium CGMCC 1.0459. The data set is described as follows: Inhibition-zone assay, lethal concentration (CL). Format: cell-based. As to the method:
as §2

The subject of data set [8] is Staphylococcus warneri CGMCC 1.2824. The data set is described as follows: Inhibition-zone assay, lethal concentration (CL). The class given is cell-based. The method, then:
as §2

The test system of data set [9] is Staphylococcus aureus J685. As to the kind of experiment: Inhibition-zone assay, lethal concentration (CL). The class given is cell-based. The note with it: S. aureus J685. The method, then: as §2
The subject of data set [10] is Methicillin-resistant Staphylococcus aureus P1386. As to the kind of experiment: Inhibition-zone assay, lethal concentration (CL). The conditions noted are these: methicillin-resistant S. aureus P1386. Format: cell-based. The method, then:
as §2

The test system of data set [11] is Methicillin-resistant coagulase negative Staphylococci P1369. The data set is described as follows: Inhibition-zone assay, lethal concentration (CL). The class given is cell-based. The method, then: as §2
For data set [12], the system named is Penicillin-sensitive Staphylococcus epidermidis P1111. As to the kind of experiment: Inhibition-zone assay, lethal concentration (CL). The class given is cell-based. The conditions noted are these: penicillin-sensitive S. epidermidis P1111. The method, then: as §2
In data set [13] the test system is Curtobacterium luteum. As to the kind of experiment: Inhibition-zone assay, lethal concentration (CL). Format: cell-based. The method, then: as §2
Data set [14] concerns Penicillin-resistant Staphylococcus epidermidis P1389. The data set is described as follows: Inhibition-zone assay, lethal concentration (CL). The class given is cell-based. The note with it: penicillin-resistant S. epidermidis P1389. As to the method:
as §2

The test system of data set [15] is Bacillus megaterium cells. The data set is described as follows: Membrane permeability assay (propidium iodide fluorescence). The conditions noted are these: B. megaterium in PBS pH 7.3, 1 µM propidium iodide, peptide or vancomycin at 10 × CL, exc 525 nm / em 595 nm. The class given is cell-based. The method, then:
The membrane permeability assay was performed according to the method previously described. Meucin-18 and Meucin-49, two known scorpion venom lytic peptides, were used as positive controls and vancomycin, a known bacterial cell-wall synthesis inhibitor without membrane-disruptive ability as a negative control. Bacillus megaterium cells in 500 μL of phosphate buffered saline (PBS) (pH 7.3) were mixed with 1 μM propidium iodide (PI) for 5 min in the dark. Fluorescence was measured with the F-4500 FL spectrophotometer (Hitachi High-Tech Science Corporation, Tokyo, Japan). Once the basal fluorescence reached a constant value, peptides or vancomycin at 10 × CL were added, and changes in fluorescence arbitrary were monitored (λexc = 525 nm; λems = 595 nm).

Data set [16] concerns S. warneri cells. The data set is described as follows: Cytoplasmic accumulation of UDP-MurNAc-pentapeptide (UMP). Format: cell-based, Staphylococcus warneri. The note with it: 130 µg/mL chloramphenicol pre-treatment 15 min, Py4 0.6 µM or vancomycin 2.0 µM, 30 min. The method, then:
The cytoplasmic UDP-MurNAc-pentapeptide (abbreviated as UMP) accumulation experiment was carried out according to the method previously described. In brief, S. warneri cells were grown at 37 °C to an OD600 of 0.5 in 40 mL broth medium and then the culture was supplemented with 130 μg/mL chloramphenicol to impede bacterial cell proliferation by blocking their protein synthesis. After 15 min of incubation, the culture was divided into three equal portions, and one portion was treated with Py4 (0.6 μM), the second with vancomycin (2.0 μM), and the third was used as an untreated control. UMP was extracted from the harvested cells following 30 min of incubation. UMP was identified by MALDI−TOF on MALDI−TOF/TOF Ultraflextreme^TM (Bruker Daltonics, Bremen, Germany) using 2,5-dihydroxybenzoic acid (DHB) as the matrix in the negative-reflection ion mode.

Data set [17] deals with S. aureus. Also noted: key: “+”, activity; “-“, no activity”. The conditions noted are these: Figure 6, antibacterial activity; cited from earlier work. From the text:
Compared with plectasin, the natural variant Py4 has two point mutations at positions 14 and 33 (Figure 1A) that are respectively located on the α-helix (Q14K) and the C-loop (G33A) (Figure 1A). These two mutations are interesting considering their mutational effects previously reported in plectasin. (1) Position 14. […] Small dots represent identical residues to plectasin. Positions showing differences in the peptides are boxed and the mutated residues relative to plectasin are colored in red. Positions involved in intramolecular epistasis are linked by one line. The arrow points to the position accounting for differential genetic backgrounds between plectasin and Py4. […] “+”, activity; “-“, no activity”. TEXT PRINTED IN THE PICTURE: Ple ...

Turning to `CC[C@H](C)[C@@H]1NC(=O)[C@H](CO)NC(=O)[C@H](CCCCN)NC(=O)[C@@H]2CSSC[C@@H](C(=O)N[C@@H](Cc3ccc(O)cc3)C(=O)O)NC(=O)[C@H](CCCCN)NC(=O)[C@@H]3CSSC[C@H](NC(=O)[C@H](CCCCN)NC(=O)[C@H](CCSC)NC(=O)[C@H](CC(=O)O)NC(=O)[C@H](CC(=O)O)NC(=O)[C@H](CCC(=O)O)NC(=O)[C@H](CC(=O)O)NC(=O)[C@H](Cc4c[nH]c5ccccc45)NC(=O)[C@@H]4CCCN4C(=O)CNC(=O)[C@H](CC(N)=O)NC(=O)[C@@H](NC(=O)CNC(=O)[C@H](Cc4ccccc4)NC(=O)CN)CSSC[C@H](NC(=O)[C@H](Cc4ccc(O)cc4)NC(=O)CNC(=O)CNC(=O)[C@H](CCCCN)NC(=O)[C@H](Cc4ccc(O)cc4)NC(=O)CNC(=O)[C@H](CCCCN)NC1=O)C(=O)N[C@@H](C)C(=O)N[C@@H](CCCCN)C(=O)N[C@@H](C)C(=O)NCC(=O)N[C@@H](Cc1ccccc1)C(=O)N[C@@H](C(C)C)C(=O)N3)C(=O)N[C@@H](Cc1c[nH]cn1)C(=O)N[C@@H](CC(N)=O)C(=O)N[C@@H](Cc1c[nH]cn1)C(=O)N2` [Py4, Pyronesin4] (H-GFGCNGPWDEDDMKCHNHCKSIKGYKGGYCAKAGFVCKCY-OH; disulfide 4-30, 15-37, 19-39), the “residual antibacterial activity after incubation in serum” value in data set [1] (24 h) and in data set [1] (48 h) was “retained its full antibacterial activity” throughout. Moreover, in data set [2], the “hemolysis on mouse blood cells” value is recorded as “no significant hemolysis”. Besides, the “CL (lethal concentration)” value came to 1.22 µM in data set [3]; 2.69 µM in data set [4]; 2.69 µM in data set [5]; 2.51 µM in data set [6]; 0.67 µM in [7]; 1.06 µM in data set [8]. Besides, the “CL (lethal concentration)” value is 2.69 µM in data set [9]; 2.51 µM in data set [10]; 4.78 µM in [11]; 4.03 µM in data set [12]; 0.03 µM in [13]; 4.38 µM in data set [14].
With `CN[C@H](CC(C)C)C(=O)N[C@H]1C(=O)N[C@@H](CC(N)=O)C(=O)N[C@H]2C(=O)N[C@H]3C(=O)N[C@H](C(=O)N[C@H](C(=O)O)c4cc(O)cc(O)c4-c4cc3ccc4O)[C@H](O)c3ccc(c(Cl)c3)Oc3cc2cc(c3O[C@@H]2O[C@H](CO)[C@@H](O)[C@H](O)[C@H]2O[C@H]2C[C@](C)(N)[C@H](O)[C@H](C)O2)Oc2ccc(cc2Cl)[C@H]1O` [vancomycin], the “membrane-disruptive activity (PI fluorescence increase)” value in data set [15] was “no obvious fluorescent increase”. The “cytoplasmic accumulation of UMP (RP-HPLC peak, MALDI-TOF identified)” value in data set [16] is “common emerging peak”.
Regarding “Plectasin (GFGCNGPWDEDDMQCHNHCKSIKGYKGGYCAKGGFVCKCY; UniProt Q53I06 56-95, looked up) [first fungal defensin found in Pseudoplectania nigrella, prototype of fungal defensin-like peptides]”, in [17], the Activity result is given as “+”.
